Several values for one entry are separate records, joined by “and”; a condition that tells them apart may be missing. Equal entries are not always repeated.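 Test compounds were applied to cells in 96-well plates for 48 hours at 5 doses. Abbreviation: GI50, concentration required for 50% inhibition of growth. TGI marks complete inhibition of growth.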
Experiments:
Experiment in all cases: DTP human tumour cell line panel, 48 h
UACC-257 melanoma = tested on: UACC-257 melanoma
NCI-H23 lung = tested on: NCI-H23 lung
DU-145 prostate = tested on: DU-145 prostate
EKVX NSCLC = tested on: EKVX NSCLC
SNB-19 CNS = tested on: SNB-19 CNS
HT29 colon = tested on: HT29 colon
SK-MEL-5 melanoma = tested on: SK-MEL-5 melanoma
M14 melanoma = tested on: M14 melanoma
NCI-H522 lung = tested on: NCI-H522 lung
SK-MEL-28 melanoma = tested on: SK-MEL-28 melanoma
786-0 renal = tested on: 786-0 renal
PC-3 prostate = tested on: PC-3 prostate
SR leukemia = tested on: SR leukemia
A549 NSCLC = tested on: A549 NSCLC
SN12C renal = tested on: SN12C renal
CCRF-CEM leukemia = tested on: CCRF-CEM leukemia
HL-60(TB) leukemia = tested on: HL-60(TB) leukemia
OVCAR-8 ovarian = tested on: OVCAR-8 ovarian
SK-OV-3 ovarian = tested on: SK-OV-3 ovarian

Row | Structure (SMILES) | TGI (UACC-257 melanoma) | TGI (NCI-H23 lung) [µM] | TGI (DU-145 prostate) [µM] | TGI (EKVX NSCLC) | TGI (SNB-19 CNS) [µM] | TGI (HT29 colon) [µM] | TGI (SK-MEL-5 melanoma) | TGI (M14 melanoma) | TGI (NCI-H522 lung) [µM] | TGI (SK-MEL-28 melanoma) | TGI (786-0 renal) [µM] | TGI (PC-3 prostate) [µM] | TGI (SR leukemia) [µM] | TGI (A549 NSCLC) [µM] | TGI (SN12C renal) [µM] | TGI (CCRF-CEM leukemia) | TGI (HL-60(TB) leukemia) [µM] | TGI (OVCAR-8 ovarian) | TGI (SK-OV-3 ovarian) | GI50 (SR leukemia) [µM]
1 | CCOc1ccccc1Nc1ccc(N)cc1S(=O)(=O)O | > 100 µM | > 100 | > 100 | > 100 µM | > 100 | > 100 | > 100 µM | > 100 µM | > 100 | > 100 µM | > 100 | > 100 | > 100 | > 100 | > 100 | – | – | – | – | –
2 | CC(C)C1=CC2=CC[C@@H]3[C@](C)(CCC[C@@]3(C)C(=O)O)[C@H]2CC1 | > 100 µM | > 89.9 | – | > 89.3 µM | > 100 | 45.9 | > 94.2 µM | > 100 µM | > 100 | > 100 µM | – | – | > 100 | > 100 | > 100 | > 100 µM | > 88.3 | > 100 µM | > 100 µM | –
3 | O=C1/C(=C/C=C/c2ccccc2)N=C(c2ccccc2)N1c1ccc(S(=O)(=O)Nc2nccs2)cc1 | > 100 µM | 63.8 | > 100 | 84.7 µM | > 100 | 49.8 | 54 µM | > 100 µM | 36.6 | – | > 100 | > 100 | > 100 | > 100 | > 100 | > 100 µM | > 100 | > 100 µM | 85.2 µM | –
4 | N#Cc1ccc([N+](=O)[O-])cc1NC(N)=S | – | – | – | > 100 µM | > 100 | > 100 | > 100 µM | > 100 µM | > 100 | > 100 µM | – | – | > 100 | > 100 | > 100 | – | – | > 100 µM | > 100 µM | –
5 | CC[C@@]1(O)C[C@H](OC2CC(N(C)C)C(OC3CC(O)C(OC4CCC(=O)C(C)O4)C(C)O3)C(C)O2)c2c(cc3c(c2O)C(=O)c2c(O)cccc2C3=O)C1C(=O)OC (some centres undefined) | 0.202 µM and 0.993 µM | 0.635 | 0.446 | 3.02 µM and 1.35 µM | – | 1.42 | 0.189 µM and 0.478 µM | 0.237 µM and 0.769 µM | – | 0.215 µM and 0.806 µM | – | 1.47 | 1.23 | – | – | 0.116 µM and 1.02 µM | – | 0.679 µM and 4.49 µM | 6 µM and 12.7 µM | 0.00493
6 | CC(=O)OCC1=CC2OC(=O)C3=COC(OC4OC(CO)C(O)C(O)C4O)C1C32 (centres undefined) | > 100 µM | > 100 | > 100 | > 100 µM | > 100 | > 100 | > 100 µM | > 100 µM | > 100 | > 100 µM | > 100 | > 100 | > 100 | > 100 | > 100 | > 100 µM | > 100 | > 100 µM | > 100 µM | –
7 | C=CCn1c(=O)c(Br)nn(CCOCP(=O)(OCC)OCC)c1=O | > 100 µM | > 100 | > 100 | > 100 µM | > 100 | – | > 100 µM | > 100 µM | > 100 | > 100 µM | – | > 100 | > 100 | > 100 | > 100 | > 100 µM | > 100 | > 100 µM | – | –
8 | Nc1ncnc2c1ncn2[C@@H]1O[C@H](COP(=O)(O)OP(=O)(O)OC[C@H]2O[C@@H](OCCCO)[C@H](O)[C@@H]2O)[C@@H](O)[C@H]1O | > 100 µM | > 100 | > 100 | > 100 µM | > 100 | > 100 | > 100 µM | > 100 µM | > 100 | > 100 µM | > 100 | > 100 | > 100 | > 100 | > 100 | > 100 µM | > 100 | > 100 µM | > 100 µM | –
9 | O=S(=O)(O)c1cc(S(=O)(=O)O)c2c(N=Nc3ccc(S(=O)(=O)O)c4ccccc34)c(O)ccc2c1 | > 100 µM | > 100 | > 100 | > 100 µM | > 100 | > 100 | > 100 µM | > 100 µM | > 100 | > 100 µM | > 100 | > 100 | – | > 100 | > 100 | > 100 µM | > 100 | > 100 µM | > 100 µM | –
10 | CC(ON1[C@](C)(c2ccccc2)CC[C@@]1(C)c1ccccc1)c1ccccc1 (some centres undefined) | > 100 µM | > 100 | > 100 | 77.9 µM | 93 | > 100 | > 100 µM | > 100 µM | 50.3 | > 100 µM | > 100 | > 100 | – | > 100 | > 100 | 52.5 µM | 61.5 | > 100 µM | > 100 µM | –
11 | CN(C)c1ccc(C2CC(=O)CC(c3ccc(N(C)C)cc3)C23C(=O)NC(=S)NC3=O)cc1 (centres undefined) | > 100 µM | > 100 | > 100 | > 100 µM | > 100 | > 100 | > 100 µM | > 100 µM | – | > 100 µM | > 100 | > 100 | > 100 | > 100 | > 100 | > 100 µM | > 100 | – | > 100 µM | –
12 | O=C1NC(=NCc2ccc(F)cc2)N/C1=C\c1ccccc1Cl | > 100 µM | – | 46.8 | 58.2 µM | 39.7 | 29.5 | 33.6 µM | 31.6 µM | 30.4 | 67.3 µM | 24 | 38.8 | > 100 | 41.8 | 29.6 | – | 36.5 | 29.3 µM | 63.2 µM | –
